Reference: patent publication US20250034116A1, “1,4-DIHETEROCYCLIC SUBSTITUTED AROMATIC RING OR AROMATIC HETEROCYCLIC COMPOUND AND USE THEREOF” (BeBetter Med Inc., priority 2022, published 2025)

Key:
[1] = test system: diet-induced obesity (DIO) mouse model; experiment: Experiment 4: weight loss of compound 2 compared with semaglutide in DIO mouse model; format: in vivo, Male C57BL/6J mice; details: 30 nmol/kg subcutaneously once daily
Source text: Experiment 4 was to compare the weight loss effects of compound 2 with that of semaglutide in a diet-induced obesity (DIO) mouse model. Male C57BL/6J mice were purchased from Vital River Laboratories (Shanghai) Co., Ltd. and housed in a barrier system animal facility. Animals were randomly divided into 4 groups: normal control group, DIO model control group, compound 2 treatment group, and semaglutide treatment group, with 6 animals per group. The model control group and treatment groups were first fed with high-fat diet (HFD) for 18 weeks, after which the treatment groups were administered with compound 2 or semaglutide, respectively. Compound 2 was administered orally at a dose of 30 mg/kg once daily for 14 consecutive weeks, while semaglutide was administered subcutaneously at a dose of 30 nmol/kg once daily. After 7 weeks of semaglutide treatment, the semaglutide treatment group was switched to compound 2 treatment for another 7 weeks.

[2] = test system: CYP enzymes in rat liver microsomes (RLM); experiment: Inhibition of 20-HETE production in rat liver microsomes (RLM); format: biochemical
In short: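 Test compounds were dissolved in DMSO, diluted in acetonitrile/DMSO (3:1), and 2 μl was mixed with 100 μl potassium phosphate buffer containing rat liver microsomes in a 96-well plate. Duplicate 30 μl aliquots received 15 μl of 400 μM substrate, were preheated at 37° C. for 10 minutes, then started with 15 μl of 6 mM NADPH for 25 minutes. LC-MS/MS measured 20-HETE formation.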

[3] = test system: CYP enzymes in mouse liver microsomes (MLM); experiment: Inhibition of 20-HETE production in mouse liver microsomes (MLM); format: biochemical
Procedure: (§1) Experimental principle: The inhibitory activity of 20-HETE production is evaluated by testing the inhibitory effects of the compound on human liver microsomes (HLM), rat liver microsomes (RLM), mouse liver microsomes (MLM), or […] CYP4 subtype enzymes (CYP4F2). This assay employs HLM, RLM, or MLM along with recombinant CYP4F2 (rCYP4F2) and recombinant CYP4A11 (rCYP4A11), which are […] CYP4 subtype enzymes, to detect the effects of the test compound at different concentrations on the metabolic rate of enzyme-specific substrates, to determine the inhibitory effects of the test compound on CYP enzymes in HLM, RLM, or MLM.
(§2) Experimental methods: Dissolve the test compound in DMSO, and subsequently dilute it with an acetonitrile and DMSO mixture (3:1). Add 2 μl of varying concentrations of the test compound and 100 μl of potassium phosphate buffer containing either liver microsomes or recombinant enzymes to a 96-well plate. After mixing well, transfer 30 μl to another well (in duplicate), add 15 μl of 400 μM substrate solution, and mix well again. Preheat at 37° C. for 10 minutes, and then add 15 μl of 6 mM NADPH and incubate at 37° C. for 25 minutes. After 25 minutes, add 160 μl of acetonitrile solution (containing 0.1 μg/ml internal standard) to stop the reaction. Mix well, centrifuge at 3500 g for 15 minutes, and then analyze the supernatant using LC-MS/MS.
(§3) Plot the compound concentration on the x-axis and the inhibition rate on the y-axis to draw the curve. Use GraphPad Prism 5 software to fit the curve and calculate the IC50. The formula is Y=Bottom+(Top−Bottom)/(1+10^((Log IC50−X)×HillSlope)). X represents the logarithmic concentration of the inhibitor, and Y represents the relative enzyme activity at a given inhibitor concentration (relative to the condition without the inhibitor).
(§4) Calculate the inhibition percentages at concentrations of 1000 nM, 500 nM, or 100 nM as well as the half-maximal inhibitory concentration (IC50) of the test compound from the above experiment.

[4] = target: recombinant CYP4A11 (rCYP4A11) (Homo sapiens (Human), UniProt Q02928); experiment: Inhibition of 20-HETE production by recombinant CYP4A11; format: biochemical; details: for inhibition at 0.1 µM: read-out: rCYP4A11 (% inh @ 100 nM)
Sequence of recombinant CYP4A11 (rCYP4A11) (Q02928 5-519): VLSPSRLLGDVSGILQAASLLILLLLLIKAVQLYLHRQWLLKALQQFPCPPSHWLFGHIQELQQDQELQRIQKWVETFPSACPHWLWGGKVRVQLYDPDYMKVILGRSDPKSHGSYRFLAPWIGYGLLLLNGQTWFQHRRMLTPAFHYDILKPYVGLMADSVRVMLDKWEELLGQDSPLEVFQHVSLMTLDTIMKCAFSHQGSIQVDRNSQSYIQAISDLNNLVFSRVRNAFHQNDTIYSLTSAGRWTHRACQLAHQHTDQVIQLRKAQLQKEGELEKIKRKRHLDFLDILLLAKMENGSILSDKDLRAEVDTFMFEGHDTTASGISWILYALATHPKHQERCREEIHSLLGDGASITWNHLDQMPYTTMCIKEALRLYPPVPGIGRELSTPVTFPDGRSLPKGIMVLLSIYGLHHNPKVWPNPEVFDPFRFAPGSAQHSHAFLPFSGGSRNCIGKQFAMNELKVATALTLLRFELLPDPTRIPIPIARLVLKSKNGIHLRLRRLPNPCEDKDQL
Procedure: as §1, §2, §3, §4

[5] = test system: CYP enzymes in human liver microsomes (HLM); experiment: Inhibition of 20-HETE production in human liver microsomes (HLM); format: biochemical
In short: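 Liver microsomes (human or mouse) or recombinant CYP4F2 or CYP4A11 in potassium phosphate buffer mixed with compound, then with 400 μM substrate solution (stock). After 10 min preincubation at 37 °C, reaction started with 6 mM NADPH solution (stock) and run 25 min at 37 °C. 20-HETE formation quantified by LC-MS/MS; IC50 from a four-parameter Hill fit, with percent inhibition also reported at 1000, 500 or 100 nM.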

[6] = target: recombinant CYP4F2 (rCYP4F2) (Homo sapiens (Human), UniProt P78329); experiment: Inhibition of 20-HETE production by recombinant CYP4F2; format: biochemical; details: for inhibition at 0.1 µM: read-out: rCYP4F2 (% inh @ 100 nM)
Sequence of recombinant CYP4F2 (rCYP4F2) (P78329 5-520): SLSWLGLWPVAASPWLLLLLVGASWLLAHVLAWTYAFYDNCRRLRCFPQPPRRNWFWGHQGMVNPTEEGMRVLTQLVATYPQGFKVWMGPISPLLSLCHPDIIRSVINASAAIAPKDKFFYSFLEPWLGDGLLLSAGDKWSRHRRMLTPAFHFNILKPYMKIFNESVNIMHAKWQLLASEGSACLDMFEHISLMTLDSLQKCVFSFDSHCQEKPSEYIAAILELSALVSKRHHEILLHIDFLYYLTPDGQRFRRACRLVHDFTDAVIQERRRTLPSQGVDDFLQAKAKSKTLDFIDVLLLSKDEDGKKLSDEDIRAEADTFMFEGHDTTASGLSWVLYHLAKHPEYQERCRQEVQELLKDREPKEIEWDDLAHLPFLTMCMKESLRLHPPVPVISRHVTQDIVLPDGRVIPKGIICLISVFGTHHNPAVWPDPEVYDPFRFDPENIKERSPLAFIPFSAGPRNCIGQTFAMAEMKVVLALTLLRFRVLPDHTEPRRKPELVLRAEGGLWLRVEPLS
Procedure: as §1, §2, §3, §4

[7] = Pharmacokinetic (PK) experiment, oral administration in rats; format: in vivo, Male SD rats; details: 20 mg/kg; for AUC(0-inf) / Cmax / Tmax / half-life / AUC(0-t): male, SD, rat, plasma; for AUC(0-t): read-out: AUC0-24
Procedure: Male SD rats, weighing 180-250 grams, were fasted overnight before testing. The test compound was dissolved in 30% sulfobutylether-β-cyclodextrin and administered orally at a dose of 20 mg/kg. Blood was collected from the tail vein at 15 minutes, 30 minutes, and 1, 2, 4, 6, 8, and 24 hours after administration. Approximately 0.3 ml of blood was collected at each time point, placed in a centrifuge tube containing K2-EDTA, and centrifuged (2000 g for 10 minutes at 4° C.) to take the plasma, which was then stored in an ultra-low temperature freezer at −70° C. or below. A 50 μL plasma sample was mixed with 135 μL of acetonitrile (containing 0.5 μg/mL internal standard) and vortexed for protein precipitation. After centrifugation, the supernatant was taken for LC-MS/MS analysis.

[8] = test system: diet-induced obesity (DIO) mouse model; experiment: Experiment 2: compound 2 and 4, weight loss and blood glucose lowering in DIO mouse model; format: in vivo, Male C57BL/6J mice
Source text: Experiment 2 was to study the effects of compound 2 and 4 on weight loss and blood glucose lowering in a diet-induced obesity (DIO) mouse model. Male C57BL/6J mice were purchased from Zhuhai BST Biotechnology Co., Ltd. and housed in a barrier system animal facility. Animals were randomly divided into 4 groups: normal control group, DIO model control group, DIO model compound 2 treatment group, and DIO model compound 4 treatment group, with 4-5 animals per group. The model control group and treatment groups were first fed with high-fat diet (HFD) for 9 weeks (day 63), and then the treatment groups were orally administered with compound 2 or compound 4 at a dose of 50 mg/kg once daily for 4 consecutive weeks, while continuing to receive HFD. Animal weights were measured weekly, and on the last day of treatment, they were fasted overnight but allowed access to water before an oral glucose tolerance test (OGTT).

[9] = 50 mg/kg orally once daily for 4 weeks, DIO mice

| Compound | IC50 [2] [nM] | RLM (% inh @ 500 nM) [2] [%] | IC50 [3] [nM] | IC50 [4] [nM] | IC50 [5] [nM] | HLM (% inh @ 500 nM) [5] [%] | IC50 [6] [nM] | inhibition at 0.1 µM [6] [%] | AUC(0-inf) [7] [ng·h/mL] | Cmax [7] [ng/mL] | Tmax [7] [h] | half-life [7] [h] | AUC(0-t) [7] [ng·h/mL] | inhibition at 0.1 µM [4] [%] | maximum weight-loss effect, decrease compared to the pre-treatment weight ([1]; after 2 weeks) | food intake, fraction of the model control group ([1]; first 2 weeks) | absorption and blood exposure after oral administration (in words) [7] | fasting blood glucose [8, 9] | glucose metabolism (OGTT) [8, 9] | body weight decrease, of the pre-administration weight ([8]; 50 mg/kg orally once daily, first week of administration, after 9 weeks HFD) |
| --- | --- | --- | --- | --- | --- | --- | --- | --- | --- | --- | --- | --- | --- | --- | --- | --- | --- | --- | --- | --- |
| semaglutide [reference compound] | – | – | – | – | – | – | – | – | – | – | – | – | – | – | approximately 20% | ⅓ to ½ | – | – | – | – |
| O=C1CCCN1CC1CCN(c2c(F)cc(-c3cn[nH]c3)cc2F)CC1 [Compound 5, 1-((1-(2,6-difluoro-4-(1H-pyrazol-4-yl)phenyl)piperidin-4-yl)methyl)pyrrolidin-2-one] | 44.2 | 66.71 | 946 | 39.6 | 28.1 | 81.03 | 24.9 | 71.1 | 124000 | 9270 | 2.67 | 8.11 | 103000 | – | – | – | well absorbed and exhibit high blood exposure | – | – | – |
| O=C1CCCCN1CC1CCN(c2ccc(-c3cn[nH]c3)c(F)c2F)CC1 [Compound 26, 1-((1-(2,3-difluoro-4-(1H-pyrazol-4-yl)phenyl)piperidin-4-yl)methyl)piperidin-2-one] | 124 | 63.62 | 1670 | – | – | 89.67 | – | 78 | 40500 | 7150 | 1.67 | 2.93 | 40300 | 53.9 | – | – | well absorbed and exhibit high blood exposure | – | – | – |
| O=C(N1CCCC1)N1CCN(c2ccc(-c3cn[nH]c3)c(F)c2F)CC1 [Compound 72, (4-(2,3-difluoro-4-(1H-pyrazol-4-yl)phenyl)piperazin-1-yl)(pyrrolidin-1-yl) methanone] | 5.36 | – | 1330 | – | 19.1 | 89.73 | – | 70.1 | 86000 | 7880 | 2.33 | 2.51 | 85800 | 50.6 | – | – | well absorbed and exhibit high blood exposure | – | – | – |
| O=C1CCCCN1CC1CCN(c2c(F)cc(-c3cn[nH]c3)cc2F)CC1 [Compound 27, 1-((1-(2,6-difluoro-4-(1H-pyrazol-4-yl)phenyl)piperidin-4-yl)methyl)piperidin-2-one] | 23.3 | – | 1150 | – | 26 | 88.87 | – | 78.4 | – | – | – | – | – | 52.3 | – | – | – | – | – | – |
| O=C1CCCN1Cc1ccc(C2CCN(c3cn[nH]c3)CC2)cc1 [Reference 83, reference compound] | 598 | 38.16 | > 10000 | – | 51.8 | 79.09 | – | 54.6 | 2640 | 562 | 1.5 | 3.53 | 2630 | 35.6 | – | – | – | – | – | – |
| O=C1CCCN1CC1CCN(c2ccc(-c3cn[nH]c3)c(F)c2F)CC1 [Compound 4, 1-((1-(2,3-difluoro-4-(1H-pyrazol-4-yl)phenyl)piperidin-4-yl)methyl)pyrrolidin-2-one] | 89.5 | 72.00 | 1350 | 53.7 | 25.8 | 85.53 | 18.8 | 61.7 | 59000 | 7260 | 1.33 | 3.9 | 58100 | – | – | – | well absorbed and exhibit high blood exposure | inhibit the increase in fasting blood glucose | enhance glucose metabolism | 12%-16% |

Now from value to compound, other results behind:

| IC50 [2] [nM] | RLM (% inh @ 500 nM) [2] [%] | IC50 [3] [nM] | IC50 [4] [nM] | IC50 [5] [nM] | HLM (% inh @ 500 nM) [5] [%] | IC50 [6] [nM] | inhibition at 0.1 µM [6] [%] | AUC(0-inf) [7] [ng·h/mL] | Cmax [7] [ng/mL] | Tmax [7] [h] | half-life [7] [h] | AUC(0-t) [7] [ng·h/mL] | inhibition at 0.1 µM [4] [%] | Compound | maximum weight-loss effect, decrease compared to the pre-treatment weight ([1]; after 2 weeks) | food intake, fraction of the model control group ([1]; first 2 weeks) | absorption and blood exposure after oral administration (in words) [7] | fasting blood glucose [8, 9] | glucose metabolism (OGTT) [8, 9] | body weight decrease, of the pre-administration weight ([8]; 50 mg/kg orally once daily, first week of administration, after 9 weeks HFD) |
| --- | --- | --- | --- | --- | --- | --- | --- | --- | --- | --- | --- | --- | --- | --- | --- | --- | --- | --- | --- | --- |
| 159 | 61.49 | 766 | – | 29.3 | 80.65 | – | 56 | – | – | – | – | – | 30.6 | O=C1CCCCN1CC1CCN(c2ccc(-c3cn[nH]c3)cc2)CC1 [Compound 25, 1-((1-(4-(1H-pyrazol-4-yl)phenyl)piperidin-4-yl)methyl)piperidin-2-one] | – | – | – | – | – | – |
| – | 64.35 | – | – | – | 69.53 | – | 70.5 | 486000 | 26800 | 3.33 | 12.5 | 364000 | 9.25 | O=C(C1CCN(c2ccc(-c3cn[nH]c3)cc2)CC1)N1Cc2ccccc2C1 [Compound 66, (1-(4-(1H-pyrazol-4-yl)phenyl)piperidin-4-yl)(isoindolin-2-yl) methanone] | – | – | well absorbed and exhibit high blood exposure | – | – | – |
| 4.9 | – | 135 | – | 19.4 | 89.89 | – | 79.2 | 69000 | 7320 | 3 | 2.57 | 68800 | 65.5 | O=C(C1CCCC1)N1CCC(c2ccc(-c3cn[nH]c3)cc2)CC1 [Compound 70, (4-(4-(1H-pyrazol-4-yl)phenyl)piperidin-1-yl)(cyclopentyl) methanone] | – | – | well absorbed and exhibit high blood exposure | – | – | – |
| – | 50.28 | – | – | 19.6 | 85.05 | – | 79.2 | – | – | – | – | – | 25.8 | O=C(Nc1ccc2occc2c1)C1CCN(c2ccc(-c3cn[nH]c3)cc2)CC1 [Compound 62, 1-(4-(1H-pyrazol-4-yl)phenyl)-N-(benzofuran-5-yl)piperidine-4-carboxamide] | – | – | – | – | – | – |
